Source: patent US20250177473A1, “PEPTIDE REGULATORS OF METABOLISM” (Metabico, Inc., priority 2022, published 2025)
No end group written: not given here.

What was measured:
HepG2 cells = experiment: HepG2 cell death on incubation with antagonist; format: cell-based, human; conditions: co-incubation with EPSI 0.05 mg/mL in M67 reporter experiment
Experimental: • HepG2 human hepatocyte carcinoma cell line (HB-8065, ATCC, USA). • HepG2 cells were cultured in a complete DMEM medium containing 15% FBS.
Transfected HepG2 cells were co-incubated with EPSI peptide (0.05 mg/mL) and antagonists of the selected receptors.

[1] = test system: M67 (Stat1/Stat3) luciferase reporter; experiment: M67 (Stat1/Stat3) luciferase reporter in HepG2 cells; format: cell-based, human; conditions: 16 hours; for Stat3 (M67) reporter activity with three PPAR antagonists: GW 6471 + T0070907 + GSK3787 applied together with EPSI 0.05 mg/mL; for effect of co-applied inhibitor/antagonist on EPSI-induced M67 reporter activation: EPSI 0.05 mg/mL + inhibitor (pravastatin 10 μM; SC144; NF 449)
Experimental: Luciferase reporters used in the study: • M67 luciferase reporter.
The use of Stat1 inhibitor is required to distinguish the effects of Stat1 and Stat3.
HepG2 cells were electroporated with 10 μg of purified plasmid DNA and 0.1 μg of pRL-CMV Renilla luciferase control reporter vector (Promega, Madison, WI, USA) using the Neon Transfection System (Thermo Fisher Scientific, Waltham, MA, USA) and the following regimens: three 20 ms 1230 V pulses.
Luciferase activity was measured in Luminometer 20/20n (TurnerBioSystems, Sunnwale, USA) using Dual-Luciferase Reporter Assay System (Promega, Madison, USA) following the manufacturer's protocol.
DY 268 (Tocris Cat. No. 5656) • PPAR-alpha: GW 6471 (Tocris, Cat. No. 4618) • PPAR-gamma: T0070907 (Selleck Chemicals, Catalog No. S2871) • PPAR-delta: GSK3787 (Selleck Chemicals, Catalog No. S8025) • LEPR.
HepG2 cells were electroporated with 10 μg of purified plasmid DNA of M67 reporter and 0.1 μg of pRL-CMV Renilla luciferase control reporter vector (Promega, Madison, WI, USA) using the Neon Transfection System (Thermo Fisher Scientific, Waltham, MA, USA) and the following regimens: three 20 ms 1230 V pulses.
Detection of luciferase signals was performed 16 hours after the compounds' application. Luciferase activity was measured in Luminometer 20/20n (TurnerBioSystems, Sunnwale, USA) using Dual-Luciferase Reporter Assay System (Promega, Madison, USA) following the manufacturer's protocol.

[2] = test system: primary mouse fibroblasts; experiment: Cell confluence of fibroblasts (cytotoxic effect); format: cell-based; conditions: 2.5 mg/ml (highest dose), 24 hours
Experimental: The study was carried out in primary mouse fibroblasts. Isolation of fibroblasts was carried out with techniques described earlier (See Example 1). Fibroblasts were incubated with […] (SEQ ID NO: 1) peptide at different concentrations (0.005 mg/ml; 0.05 mg/ml; 0.5 mg/ml; 2.5 mg/ml) for 24 hours. Each treatment group was represented in two biological replicates.

TNF-α = TNF-α mRNA expression in LPS-induced primary mouse fibroblasts; format: cell-based; conditions: peptide 100 μM + LPS 0.5 μg/mL, 24 hours
Experimental: (§1) The study was carried out in primary mouse fibroblasts. Isolation of fibroblasts was carried out with techniques described earlier (See Example 1). Fibroblasts were cultured for 3 days. The following stressors were applied separately: bacterial lipopolysaccharides (LPS), high glucose in the incubation medium, and serum-free incubation medium.
(§2) LPS is a major outer surface membrane component that induces an inflammatory response in cells.
(§3) Isolation of mRNA, synthesis of the first strand of cDNA, and RT-PCR were performed with techniques described earlier (See Example 1). Expression levels of IRS2, TNF-α, IL-6, and GSK3p (WNT-pathway) were analyzed.
(§4) The study was carried out in primary mouse fibroblasts. Isolation of fibroblasts was carried out with techniques described earlier (See Example 1). Incubation of fibroblasts with 100 μM individual peptides and 0.5 μg/mL LPS was carried out for 24 hours. Each treatment group was represented in two biological replicates.
(§5) Isolation of mRNA, synthesis of the first strand of cDNA, and RT-PCR were performed with techniques described earlier (See Example 1). Expression levels of RPL27, TNF-α, IL-6, and IRS2 genes were analyzed.

IL-6 = IL-6 mRNA expression in LPS-induced primary mouse fibroblasts; format: cell-based; conditions: peptide 100 μM + LPS 0.5 μg/mL, 24 hours
Experimental: as §1, §2, §3, §4, §5

IRS2 gene expression = experiment: IRS2 and metabolic gene mRNA expression (real-time PCR) in primary mouse fibroblasts; format: cell-based; conditions: 24 hours
Experimental: The study was carried out in primary mouse fibroblasts. Fibroblasts were isolated from skin tissues of twenty C57BL/6 mice in accordance with the standard protocol (Seluanov (2010). Establishing primary adult fibroblast cultures from rodents. JoVE. 44). Fibroblasts were cultured in a complete DMEM/F12 medium containing 15% FBS for two days, after which they were incubated with individual peptides for 24 hours. The dose of each peptide was 0.5 mg/ml. The experiment was carried out in 2 biological replicates.
The isolation of total RNA from cells was performed using the “ExtractRNA” reagent (Evrogen, Russia) analog of Trizol, according to the manufacturer's protocol. The quality of the isolated total RNA was assessed by measuring the concentration of RNA and the ratio of optical absorption at wavelengths of 260 nm and 280 nm. […]
Real-time PCR was performed using commercially available kit qPCR mix-HS-SYBR+Low Rox (Evrogen, Russia) and 7500 real-time PCR System (Applied Biosystems). […] We analyzed expression levels of TSC1, TSC2, pS6K1, pAKT, IRS2, SREBP-1, Stat3 genes. […]
Isolation of mRNA, synthesis of the first strand of cDNA, and RT-PCR were performed with techniques described earlier (See Example 1). Expression levels of IRS2, TNF-α, IL-6, and GSK3p (WNT-pathway) were analyzed. […]

COc1cc(OC)cc(N(CCNC(C)C)c2ccc3ncc(-c4cnn(C)c4)nc3c2)c1 [Erdafitinib]
HepG2 cell death (HepG2 cells): total cell death

O=C(NCCS(=O)(=O)c1ccc(C(F)(F)F)cn1)c1ccc(Cl)cc1 [GSK3787]
Stat3 (M67) reporter activity with three PPAR antagonists [1]: significant induction

CCC(=O)NC[C@H](Cc1ccc(OCCc2nc(-c3ccccc3)oc2C)cc1)N/C(C)=C\C(=O)c1ccc(C(F)(F)F)cc1 [GW 6471]
Stat3 (M67) reporter activity with three PPAR antagonists [1]: significant induction

O=C(Nc1cc(C(=O)Nc2ccc(S(=O)(=O)O)cc2S(=O)(=O)O)cc(C(=O)Nc2ccc(S(=O)(=O)O)cc2S(=O)(=O)O)c1)Nc1cc(C(=O)Nc2ccc(S(=O)(=O)O)cc2S(=O)(=O)O)cc(C(=O)Nc2ccc(S(=O)(=O)O)cc2S(=O)(=O)O)c1 [NF 449]
effect of co-applied inhibitor/antagonist on EPSI-induced M67 reporter activation [1]: partially inversed

O=C(NNc1nc2cc(F)ccc2n2cccc12)c1cnccn1 [SC144]
effect of co-applied inhibitor/antagonist on EPSI-induced M67 reporter activation [1]: partially inversed

O=C(Nc1ccncc1)c1cc([N+](=O)[O-])ccc1Cl [T0070907]
Stat3 (M67) reporter activity with three PPAR antagonists [1]: significant induction

DLSKEPSISRE
cytotoxic effect (confluence of the cells) [2]: absence of cytotoxic effect

SKEPSIS (Synthetic polymer)
LPS-evoked levels of TNF-α expression (TNF-α): reducing LPS-evoked levels | LPS-evoked levels of IL-6 expression (IL-6): reducing LPS-evoked levels | IRS2 expression during LPS-induced inflammatory response (IRS2 gene expression; peptide 100 μM + LPS 0.5 μg/mL): induced | IRS2 gene expression levels (IRS2 gene expression; pharmacophore screen, peptides 100 μM): induce IRS2 gene expression levels
